Results from US6355799B1, “Substituted benzene compounds, process for their preparation, and herbicidal and defoliant compositions containing them” (ISK Americas Incorporated, priority 1997, dated 2002).

How the values were obtained:
Format in all cases: in vivo
[1] = system: redroot pigweed (Amaranthus retroflexus, AMARE); test: Pre-emerge test, greenhouse herbicide activity screening; conditions: rated 14 days after application, 0 = no damage, 100 = complete death
Procedure, shortened: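 Herbicidal damage is scored 0 (none) to 100 (complete plant death) two weeks after a simulated field spray. Rates span 15–1000 g ai/ha, delivered in acetone at 187 l/ha. For post-emergence treatments, plants have 2–3 leaves and the spray carries 0.25% v/v non-ionic surfactant.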

[2] = system: green foxtail (Setaria viridis, SETVI); test: Post-emerge test, greenhouse herbicide activity screening; conditions: post-emerge, 14 days after application, rating scale 0-100
Procedure, shortened: (§1)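 Compounds in acetone were track-sprayed at 15–1000 g ai/ha: pre-emergence onto soil sown the previous day, then top-watered to incorporate and later bottom-watered; post-emergence onto 2–3 leaf plants with 0.25% v/v surfactant, bottom-watered only. Ratings on a 0–100 phytotoxicity scale were taken at day 14.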

[3] = system: lambsquarters (Chenopodium album, CHEAL); test: as above; conditions: post-emerge, 14 days after application, rating scale 0-100
Procedure, shortened: as §1

[4] = system: redroot pigweed (Amaranthus retroflexus, AMARE); test: as above; conditions: post-emerge, 14 days after application, rating scale 0-100
Procedure, shortened: as §1

[5] = system: large crabgrass (Digitaria sanguinalis, DIGSA); test: as above; conditions: post-emerge, 14 days after application, rating scale 0-100
Procedure, shortened: as §1

[6] = system: ivyleaf morningglory (Ipomoea hederacea, IPOHE); test: as above; conditions: post-emerge, 14 days after application, rating scale 0-100
Procedure, shortened: as §1

[7] = system: johnsongrass (Sorghum halepense, SORHA); test: as above; conditions: post-emerge, 14 days after application, rating scale 0-100
Procedure, shortened: as §1

[8] = system: velvetleaf (Abutilon theophrasti, ABUTH); test: as above; conditions: post-emerge, 14 days after application, rating scale 0-100
Procedure, shortened: as §1

[9] = system: sicklepod (Cassia obtusifolia, CASOB); test: as above; conditions: post-emerge, 14 days after application, rating scale 0-100
Procedure, shortened: as §1

[10] = system: barnyardgrass (Echinochloa crus-galli, ECHCG); test: as above; conditions: post-emerge, 14 days after application, rating scale 0-100
Procedure, shortened: as §1

[11] = system: green foxtail (Setaria viridis, SETVI); test: Pre-emerge test, greenhouse herbicide activity screening; conditions: rated 14 days after application, 0 = no damage, 100 = complete death
Procedure, shortened: (§2)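 Compounds in acetone were track-sprayed at 15-1000 g ai/ha (187 l/ha) on sandy loam pots: pre-emerge one day after seeding, post-emerge at 2-3 leaf stage with 0.25% v/v non-ionic surfactant. Phytotoxicity was rated 14 days later on a 0 (no damage) to 100 (complete death) scale.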

[12] = system: lambsquarters (Chenopodium album, CHEAL); test: as above; conditions: rated 14 days after application, 0 = no damage, 100 = complete death
Procedure, shortened: as §2

[13] = system: large crabgrass (Digitaria sanguinalis, DIGSA); test: as above; conditions: rated 14 days after application, 0 = no damage, 100 = complete death
Procedure, shortened: as §2

[14] = system: ivyleaf morningglory (Ipomoea hederacea, IPOHE); test: as above; conditions: rated 14 days after application, 0 = no damage, 100 = complete death
Procedure, shortened: as §2

[15] = system: johnsongrass (Sorghum halepense, SORHA); test: as above; conditions: rated 14 days after application, 0 = no damage, 100 = complete death
Procedure, shortened: as §2

[16] = system: velvetleaf (Abutilon theophrasti, ABUTH); test: as above; conditions: rated 14 days after application, 0 = no damage, 100 = complete death
Procedure, shortened: as §2

[17] = system: sicklepod (Cassia obtusifolia, CASOB); test: as above; conditions: rated 14 days after application, 0 = no damage, 100 = complete death
Procedure, shortened: as §2

[18] = system: barnyardgrass (Echinochloa crus-galli, ECHCG); test: as above; conditions: rated 14 days after application, 0 = no damage, 100 = complete death
Procedure, shortened: as §2

[19] = system: field corn (Zea mays L., var. Dekalb 535, CORN); test: Pre-emerge test, crop safety; conditions: rated 14 days after application, 0 = no damage, 100 = complete death
Procedure, shortened: (§3)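 Rating: 0–100 visual injury, 14 DAA. Application: acetone, 187 l/ha, 15–1000 g ai/ha, flat-fan track sprayer with nozzle 40–45 cm above soil or canopy. Post-emerge runs used 0.25% v/v surfactant on 2–3 leaf plants.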

[20] = system: upland rice (Oryza sp., var. Tebonnet, RICE); test: Pre-emerge test, crop safety; conditions: rated 14 days after application, 0 = no damage, 100 = complete death
Procedure, shortened: as §3

[21] = system: field corn (Zea mays L., var. Dekalb 535, CORN); test: Post-emerge test, crop safety; conditions: post-emerge, 14 days after application, rating scale 0-100
Procedure, shortened: as §2

[22] = system: upland rice (Oryza sp., var. Tebonnet, RICE); test: Post-emerge test, crop safety; conditions: post-emerge, 14 days after application, rating scale 0-100
Procedure, shortened: as §2

Question: COc1c(Cl)cc(F)c(-n2c(=O)cc(C(F)(F)F)n(N)c2=O)c1NC(=O)c1ccc2ccccc2c1 [2-77] was tested. Which “Pre-emerge Herbicidal Activity, phytotoxicity rating (0-100), AMARE” value ([1]; 63 g ai/ha) did it give?
Answer: 70

Question: What about the “Pre-emerge Herbicidal Activity, phytotoxicity rating (0-100), AMARE” value ([1]; 250 g ai/ha) of the same molecule?
Answer: 100

Question: What about the “phytotoxicity rating SETVI” value ([2]; 63 g ai/ha) of the same molecule?
Answer: 0

Question: What about the “phytotoxicity rating SETVI” value ([2]; 250 g ai/ha) of the same molecule?
Answer: 0

Question: And the “phytotoxicity rating CHEAL” value ([3]; 63 g ai/ha)?
Answer: 100

Question: What about the “phytotoxicity rating CHEAL” value ([3]; 250 g ai/ha) of the same molecule?
Answer: 80

Question: What about the “phytotoxicity rating AMARE” value ([4]; 63 g ai/ha) of the same molecule?
Answer: 10

Question: And the “phytotoxicity rating AMARE” value ([4]; 250 g ai/ha)?
Answer: 100

Question: And the “phytotoxicity rating DIGSA” value ([5]; 63 g ai/ha)?
Answer: 0

Question: And the “phytotoxicity rating DIGSA” value ([5]; 250 g ai/ha)?
Answer: 0

Question: And the “phytotoxicity rating IPOHE” value ([6]; 63 g ai/ha)?
Answer: 60

Question: And the “phytotoxicity rating IPOHE” value ([6]; 250 g ai/ha)?
Answer: 95

Question: And the “phytotoxicity rating SORHA” value ([7]; 63 g ai/ha)?
Answer: 0

Question: And the “phytotoxicity rating SORHA” value ([7]; 250 g ai/ha)?
Answer: 0

Question: What about the “phytotoxicity rating ABUTH” value ([8]; 63 g ai/ha) of the same molecule?
Answer: 100

Question: And the “phytotoxicity rating ABUTH” value ([8]; 250 g ai/ha)?
Answer: 100

Question: And the “phytotoxicity rating CASOB” value ([9]; 63 g ai/ha)?
Answer: 40

Question: And the “phytotoxicity rating CASOB” value ([9]; 250 g ai/ha)?
Answer: 100

Question: And the “phytotoxicity rating ECHCG” value ([10]; 63 g ai/ha)?
Answer: 0

Question: And the “phytotoxicity rating ECHCG” value ([10]; 250 g ai/ha)?
Answer: 0

Question: And the “Pre-emerge Herbicidal Activity, phytotoxicity rating (0-100), SETVI” value ([11]; 63 g ai/ha)?
Answer: 0

Question: What about the “Pre-emerge Herbicidal Activity, phytotoxicity rating (0-100), SETVI” value ([11]; 250 g ai/ha) of the same molecule?
Answer: 60

Question: What about the “Pre-emerge Herbicidal Activity, phytotoxicity rating (0-100), CHEAL” value ([12]; 63 g ai/ha) of the same molecule?
Answer: 90

Question: What about the “Pre-emerge Herbicidal Activity, phytotoxicity rating (0-100), CHEAL” value ([12]; 250 g ai/ha) of the same molecule?
Answer: 100

Question: And the “Pre-emerge Herbicidal Activity, phytotoxicity rating (0-100), DIGSA” value ([13]; 63 g ai/ha)?
Answer: 0

Question: And the “Pre-emerge Herbicidal Activity, phytotoxicity rating (0-100), DIGSA” value ([13]; 250 g ai/ha)?
Answer: 30

Question: What about the “Pre-emerge Herbicidal Activity, phytotoxicity rating (0-100), IPOHE” value ([14]; 63 g ai/ha) of the same molecule?
Answer: 0

Question: And the “Pre-emerge Herbicidal Activity, phytotoxicity rating (0-100), IPOHE” value ([14]; 250 g ai/ha)?
Answer: 30

Question: What about the “Pre-emerge Herbicidal Activity, phytotoxicity rating (0-100), SORHA” value ([15]; 63 g ai/ha) of the same molecule?
Answer: 0

Question: And the “Pre-emerge Herbicidal Activity, phytotoxicity rating (0-100), SORHA” value ([15]; 250 g ai/ha)?
Answer: 0

Question: What about the “Pre-emerge Herbicidal Activity, phytotoxicity rating (0-100), ABUTH” value ([16]; 63 g ai/ha) of the same molecule?
Answer: 30

Question: What about the “Pre-emerge Herbicidal Activity, phytotoxicity rating (0-100), ABUTH” value ([16]; 250 g ai/ha) of the same molecule?
Answer: 100

Question: What about the “Pre-emerge Herbicidal Activity, phytotoxicity rating (0-100), CASOB” value ([17]; 63 g ai/ha) of the same molecule?
Answer: 0

Question: What about the “Pre-emerge Herbicidal Activity, phytotoxicity rating (0-100), CASOB” value ([17]; 250 g ai/ha) of the same molecule?
Answer: 30

Question: What about the “Pre-emerge Herbicidal Activity, phytotoxicity rating (0-100), ECHCG” value ([18]; 63 g ai/ha) of the same molecule?
Answer: 0

Question: What about the “Pre-emerge Herbicidal Activity, phytotoxicity rating (0-100), ECHCG” value ([18]; 250 g ai/ha) of the same molecule?
Answer: 0

Question: What about the “Pre-emerge phytotoxicity rating (0-100), crop damage, CORN” value ([19]; 63 g ai/ha) of the same molecule?
Answer: 0

Question: What about the “Pre-emerge phytotoxicity rating (0-100), crop damage, CORN” value ([19]; 250 g ai/ha) of the same molecule?
Answer: 0

Question: What about the “Pre-emerge phytotoxicity rating (0-100), crop damage, RICE” value ([20]; 63 g ai/ha) of the same molecule?
Answer: 0

Question: What about the “Pre-emerge phytotoxicity rating (0-100), crop damage, RICE” value ([20]; 250 g ai/ha) of the same molecule?
Answer: 20

Question: What about the “phytotoxicity rating CORN” value ([21]; 63 g ai/ha) of the same molecule?
Answer: 0

Question: What about the “phytotoxicity rating CORN” value ([21]; 250 g ai/ha) of the same molecule?
Answer: 10

Question: What about the “phytotoxicity rating RICE” value ([22]; 63 g ai/ha) of the same molecule?
Answer: 20

Question: And the “phytotoxicity rating RICE” value ([22]; 250 g ai/ha)?
Answer: 40
